The source of these data is ChEMBL document CHEMBL1147698, “Design of a potent, soluble glucokinase activator with excellent in vivo efficacy” (Bioorg Med Chem Lett, 2006).

Converted amounts (≈) assume the structure as drawn. Some results are limits rather than exact numbers.

Data set [1] is described as follows: Bioavailability in dog. The class given is ADME, organism-based, Canis lupus familiaris. Conditions: in vivo; call rule not given here.
The species entered for data set [2] is Rattus norvegicus. The data set can be described thus: Unbound clearance in rat. The class given is ADME, organism-based. Conditions: in vivo.
Data set [3] can be described thus: Solubility of the compound. Type of data set: physicochemical.
Data set [4] in a line: Intrinsic clearance in dog per 10^6 cells. Type of data set: ADME, Canis lupus familiaris. The conditions noted are these: not recorded.
Data set [5] is described as follows: Bioavailability in rat. Conditions: in vivo. Type of data set: ADME, organism-based.
Data set [6] is filed under the species Rattus norvegicus. As to the kind of experiment: Decrease in glucose level in Zucker rat by oral glucose tolerance test. Conditions: in vivo. Type of data set: ADME, organism-based.
Data set [7] is described as follows: Clearance in dog. The class given is ADME, organism-based, Canis lupus familiaris. Conditions: in vivo.
Data set [8] is filed under the species Canis familiaris. The data set can be described thus: Unbound clearance in dog. Type of data set: ADME, organism-based, Canis lupus familiaris. The conditions noted are these: in vivo.
The species entered for data set [9] is Rattus norvegicus. As to the kind of experiment: Clearance in rat measured as percent of hepatic blood flow. The class given is ADME, organism-based, Liver. Conditions: in vivo.
Data set [10] in a line: Percent of unbound ligand in dog plasma. The class given is ADME, organism-based, Canis lupus familiaris.
Data set [11] can be described thus: Percent of unbound ligand in rat plasma. The class given is ADME, organism-based.
The species entered for data set [12] is Canis familiaris. The data set can be described thus: Hepatic blood flow in dog. The class given is ADME, organism-based, Canis lupus familiaris, Liver.
A short description of data set [13]: Intrinsic clearance in rat per 10^6 cells. Type of data set: ADME.
Data set [14] is filed under the species Rattus norvegicus. The data set can be described thus: Hepatic blood flow in rat. The class given is ADME, organism-based, Liver.
Data set [15] is filed under the species Canis familiaris. The data set can be described thus: Clearance in dog measured as percent of hepatic blood flow. Conditions: in vivo. The class given is ADME, organism-based, Canis lupus familiaris, Liver.
A further data set concerns the target T1, Hexokinase-4 (Homo sapiens, UniProt P35557).
T1 sequence (P35557 whole entry): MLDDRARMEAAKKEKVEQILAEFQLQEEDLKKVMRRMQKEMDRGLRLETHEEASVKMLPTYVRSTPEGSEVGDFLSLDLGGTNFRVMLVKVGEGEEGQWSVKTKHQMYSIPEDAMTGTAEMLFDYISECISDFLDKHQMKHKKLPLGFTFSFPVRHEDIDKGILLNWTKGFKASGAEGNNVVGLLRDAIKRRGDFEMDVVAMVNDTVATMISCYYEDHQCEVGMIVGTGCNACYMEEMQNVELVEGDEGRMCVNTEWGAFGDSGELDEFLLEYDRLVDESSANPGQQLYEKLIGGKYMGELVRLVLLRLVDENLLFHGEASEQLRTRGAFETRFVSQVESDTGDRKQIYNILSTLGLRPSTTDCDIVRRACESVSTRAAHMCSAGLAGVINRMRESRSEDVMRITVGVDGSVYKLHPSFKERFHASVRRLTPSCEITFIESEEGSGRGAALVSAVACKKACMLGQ

Data set [16] in a line: Clearance in rat. The class given is ADME, organism-based. Conditions: in vivo.
For data set [17], the system named is Rattus norvegicus. As to the kind of experiment: Decrease in glucose level in Zucker rat at 3 mg/kg, po by oral glucose tolerance test. Type of data set: ADME, organism-based. Also on record: dose 3 mg/kg, route oral. The conditions noted are these: in vivo.
Data set [18] has as its system Rattus norvegicus. The data set can be described thus: Decrease in glucose level in Zucker rat at 1 mg/kg, po by oral glucose tolerance test. Also on record: dose 1 mg/kg, route oral. The class given is ADME, organism-based. The conditions noted are these: in vivo.

Description for Hexokinase-4: Activation of glucokinase

Turning to `COC[C@H](C)Oc1cc(O[C@@H](C)Cc2ccccc2)cc(C(=O)Nc2ccc(C(=O)O)cn2)c1`, the values for the bioavailability in data set [1] and in data set [5] were 100% and 99%, respectively. In addition, the results for the CL/F in the data set filed under Rattus norvegicus [2] and in the data set listed under Canis familiaris [8] were 475 mL/min/kg and 301 mL/min/kg, respectively. Also, in data set [3], the solubility – broadly, the dissolved amount per volume that the medium holds – came out at 1350 µM (≈ 627 µg/mL). Further, in [4], the intrinsic metabolic clearance (hepatocyte CLint) (commonly a measure of how fast metabolising enzymes remove a compound, apart from limits set by blood flow) is below 1 µL/min/1e6 cells. Also, in the data set filed under Rattus norvegicus [6], the Activity result is recorded as “Dose-dependent effect”. Moreover, the clearance (as a rule, the volume of plasma or blood freed of the substance per unit of time) in data set [7] is 4.4 mL/min/kg.
Turning to `CC(C)Oc1cc(OCCc2ccsc2)cc(C(=O)Nc2ccc(C(=O)O)cn2)c1`, the CL/F – broadly, the apparent clearance, not corrected for the fraction that reaches the circulation – in the data set listed under Rattus norvegicus [2] was determined as 1461 mL/min/kg; in the data set filed under Canis familiaris [8] it was 1359 mL/min/kg. Also, the “%LBF” value in the data set listed under Rattus norvegicus [9] is recorded as 5.3%; in the data set listed under Canis familiaris [15], 28%. Further, the free fraction (fraction unbound) – broadly, the share of the substance not bound to proteins or other matrix – in [10] was 0.0064; in data set [11] it was 0.0026. Moreover, the hepatocyte CLint in [4] and in data set [13] was below 1 µL/min/1e6 cells throughout. Further, the Activity in the data set filed under Canis familiaris [12] was 31 mL/min/kg; in the data set listed under Rattus norvegicus [14], 72 mL/min/kg. Further, the clearance in data set [7] is 8.7 mL/min/kg.
In data set [11], `COC[C@@H](C)Oc1cc(OC(C)C)cc(C(=O)Nc2ccc(C(=O)O)cn2)c1` came in with a fraction unbound of 0.0622. The EC50 (usually the midpoint of the concentration-response curve) at Hexokinase-4 is 5510 nM.
The like results for `CC(C)Oc1cc(O[C@H](C)Cc2ccccc2)cc(C(=O)Nc2ccc(C(=O)O)cn2)c1` were, in that order, 0.0023 and 90 nM.
In turn, `CC(C)Oc1cc(OCc2ccccc2)cc(C(=O)Nc2ccc(C(=O)O)cn2)c1` displayed a CL/F in the data set filed under Rattus norvegicus [2] of 1850 mL/min/kg. The same molecule had a fraction unbound in data set [11] of 0.002. For the same molecule, the hepatocyte CLint in data set [13] is below 1 µL/min/1e6 cells. The clearance in data set [16] was 3.7 mL/min/kg.
In the data set listed under Rattus norvegicus [2], `CC(C)Oc1cc(O[C@@H](C)Cc2ccccc2)cc(C(=O)Nc2ccc(C(=O)O)cn2)c1` gave an apparent clearance CL/F of 1435 mL/min/kg. Besides, the outcome in the data set with Rattus norvegicus [17] was Active. In addition, the solubility in data set [3] amounted to 8 µM (≈ 3.48 µg/mL). For the same molecule, the bioavailability (commonly dose-corrected exposure relative to a reference, in per cent) in [5] was 85%. The EC50 on Hexokinase-4 was found to be 20 nM.
For `CC(C)Oc1cc(O[C@@H](C)c2ccccc2)cc(C(=O)Nc2ccc(C(=O)O)cn2)c1`, the CL/F in the data set filed under Rattus norvegicus [2] is 171 mL/min/kg. The hepatocyte CLint in [13] was below 1 µL/min/1e6 cells. Further, the EC50 on Hexokinase-4 was found to be 110 nM.
`CC(C)Oc1cc(O[C@H](C)c2ccccc2)cc(C(=O)Nc2ccc(C(=O)O)cn2)c1` displayed a fraction unbound in data set [11] of 0.0048. The same molecule came in with an EC50 at Hexokinase-4 of 950 nM.
Take `COC[C@H](C)Oc1cc(OC(C)C)cc(C(=O)Nc2ccc(C(=O)O)cn2)c1`: the CL/F in the data set filed under Rattus norvegicus [2] stood at 43 mL/min/kg. Moreover, the solubility in data set [3] is above 3140 µM. Moreover, the fraction unbound in [11] was 0.0534. Also, in data set [5], the bioavailability is 100%. In [16], this molecule gave a clearance of 2.3 mL/min/kg. In addition, the EC50 at Hexokinase-4 was 610 nM. In the data set on Rattus norvegicus [18], the result was Active.
